Measurements published in patent US20090099099A1, “Isoflavone Glycosides as Peroxisome Proliferator-Activated Receptor-alpha Modulator” (priority 2007, published 2009).
Read-outs that look alike come from different tables or passages of the source.

Key:
[1] = mice; cited from earlier work
PPAR-α [2] = target: T1, PPAR-α (Homo sapiens, UniProt Q07869); conditions: cited from earlier work
T1 sequence (Q07869 1-468): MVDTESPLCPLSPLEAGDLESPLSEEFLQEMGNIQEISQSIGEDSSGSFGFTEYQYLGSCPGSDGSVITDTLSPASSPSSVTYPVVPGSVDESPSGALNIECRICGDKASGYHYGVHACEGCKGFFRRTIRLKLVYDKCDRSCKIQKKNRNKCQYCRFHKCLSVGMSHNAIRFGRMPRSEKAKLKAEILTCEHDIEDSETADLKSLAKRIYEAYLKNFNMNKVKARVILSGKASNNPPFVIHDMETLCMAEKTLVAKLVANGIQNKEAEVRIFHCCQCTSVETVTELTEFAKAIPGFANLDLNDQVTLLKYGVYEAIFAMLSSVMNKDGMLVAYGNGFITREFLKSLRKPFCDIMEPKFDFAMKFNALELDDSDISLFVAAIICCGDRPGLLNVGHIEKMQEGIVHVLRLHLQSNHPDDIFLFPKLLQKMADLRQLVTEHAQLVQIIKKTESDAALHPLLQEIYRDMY

[3] = Body weights of SHRSP rats treated by gavage for 5 months; format: in vivo
Protocol: FIG. 3. Effects of puerarin on the body weights of rats. The rats were fed on a normal chow diet for 5 months starting when they were 4 weeks old. The rats were treated by gavage either with vehicle (normal saline) or puerarin (250 mg/Kg/day in a single dose in normal saline). The data were compared statistically by using two-way ANOVA with n=8 in each group.
Spontaneously hypertensive stroke-prone (SHRSP) male rats were fed on a normal chow diet for 5 months starting when they were 4 weeks old. The rats were treated by gavage either with vehicle (normal saline) or puerarin (250 mg/Kg/day in a single dose in normal saline). Their blood pressures and body weights were monitor everyday for 5 months.

[4] = rats, oral intake; cited from earlier work
PPAR-α [5] = assay: Protein immuno-blotting of PPAR-α expression in HepG2 cells; format: cell-based, human; conditions: puerarin 1-100 μM, 24 hours, Western blotting
Protocol: FIG. 2. Expression of PPAR-α in HepG2 cells. Cells were incubated in puerarin (1-100 μM) for 24 hrs. Whole cell lysate were collected and PPAR-α expression was probed using anti-PPAR-α (Santa Cruz, Calif.) in Western blotting. Each lane was loaded with 50 μg protein from cell lysate. Expression of actin was also probed to ensure protein loading.
Cell Cultures HepG2 cells was purchased from American Type Culture Collection (Manassas, Va.). They were maintained in DMEM containing 10% heat-inactivated fetal bovine serum and 1% penicillin/streptomycin in tissue culture dishes incubated in 95% air/5% CO2, at 37° C. The media were changed 2 times per week until the cells were confluent.
Protein immuno-blotting of PPAR-α. HepG2 cells were collected in RIPA buffer (150 mM NaCl, 1% Triton X-100, 1% sodium deoxycholate, 0.1% sodium dodecyl sulfate, 50 mM Tris-HCl, 2 mM EDTA, pH 7.5) with protease inhibitors (Mini-Complete protease inhibitor cocktail tablets (Roche Diagnostics, Mannheim, Germany)] after incubated in puerarin (1-100 μM) for 24 hours. The protein content of the cell lysate was quantified by using a protein assay kit (Bio-Rad Lab, Hercules Calif.). Protein (50 μg) from the whole cell lysate was loaded in each lane of a polyacrylamide (10%) gel, eletrophoresed and blotted to a polyvinylidene difluoride (PVDF) membrane. […]

[6] = cited from earlier work

| Structure (SMILES) | effect on glucose tolerance [1] | activation of PPAR-α (PPAR-α [2]) | body weights, treatment group vs control group (two-way ANOVA) ([3]; 250 mg/Kg/day by gavage, 5-month period, n=8, P<0.001) | toxicity ([3]; 250 mg/Kg/day orally, 5 months, rats) | body weight less than the control rats in average ([3]; 250 mg/Kg/day orally, over 5 months period, SHRSP male rats, normal chow diet) [%] | absorption from the intestine [4] | metabolism in the blood [4] | PPAR-α expression (PPAR-α [5]) | Effects ([6]; AMI patients (Xiao et al., 2004)) | Effects ([6]; Angina patients (Yang et al., 1990)) | Effects ([6]; CHD patients (Xie et al., 2003)) | Effects ([6]; Chronic heart failure patients (Duan et al., 2000)) | Effects ([6]; Coronary heart disease (CHD) patients (Shi et al., 2002)) | Effects ([6]; Diabetic retinopathy patients (Ren et al., 2000)) | Effects ([6]; Unstable angina (UA) patients (Luo and Zheng, 2001)) |
| --- | --- | --- | --- | --- | --- | --- | --- | --- | --- | --- | --- | --- | --- | --- | --- |
| O=c1c(-c2ccc(O)cc2)coc2cc(O[C@@H]3O[C@H](CO)[C@@H](O)[C@H](O)[C@H]3O)ccc12 [daidzin, reference compound] | impairs glucose tolerance | – | – | – | – | – | – | – | – | – | – | – | – | – | – |
| O=c1c(-c2ccc(O)cc2)coc2cc(O)ccc12 [daidzein] | – | activate PPAR-α | – | – | – | – | – | – | – | – | – | – | – | – | – |
| O=c1c(-c2ccc(O)cc2)coc2c([C@@H]3O[C@H](CO)[C@@H](O)[C@H](O)[C@H]3O)c(O)ccc12 [puerarin, 4H-1-Benzopyran-4-one, 8-β-D-glucopyranosyl-7-hydroxy-3-(4-hydroxyphenyl)] | improves glucose tolerance | – | significantly different | no apparent toxicity | 13 | rapidly absorbed | mostly remains unmetabolized | upregulated | ↓ the infarction size, ↓free fatty acids | Anti-angina, reducing both systolic | Simulate the late phase of ischemic | ↓ oxidized-LDL, improve heart | Improve insulin resistance, and insulin | ↓ blood viscosity, improve | ↓ platelet granule membrane protein |
